Paper PMC7753147, “High-throughput determination of protein affinities using unmodified peptide libraries in nanomolar scale” (iScience, 2020)

Columns and labels:
gephE = test: µSPOT peptide microarray binding assay with recombinant gephE
native geph = test: µSPOT peptide microarray binding assay with native geph from mouse brain lysate
FL-geph = test: µSPOT peptide microarray binding assay with full-length geph
[1] = µSPOT peptide microarray, GlyRβ full positional scan, recombinant gephE, intensity normalised to wild-type sequence DLRSNDFSIVGSLPR (=1)
[2] = µSPOT peptide microarray, GlyRβ full positional scan, native geph from mouse brain lysate, intensity normalised to wild-type sequence DLRSNDFSIVGSLPR (=1)
[3] = µSPOT peptide microarray, GlyRβ full positional scan, intensity normalised to wild-type sequence DLRSNDFSIVGSLPR (=1)
[4] = µSPOT full positional scan of GlyRβ 15-mer DLRSNDFSIVGSLPR, intensity normalised to wild-type sequence (= 1)
[5] = µSPOT full positional scan of GlyRβ 15-mer DLRSNDFSIVGSLPR, native geph, intensity normalised to wild-type sequence (= 1)

Sequence | gephE Binding Intensity [norm.] (gephE; [1]) | Native geph Binding Intensity [norm.] (native geph; [2]) | Fl-geph Binding Intensity [norm.] (FL-geph; [3]) | gephE Binding Intensity [norm.] (gephE; [4]) | Native geph Binding Intensity [norm.] (native geph; [5]) | Fl-geph Binding Intensity [norm.] (FL-geph; [4])
DLRSTDFSIVGSLPR [GlyRβ_Full_Positional_Scan_096] | 1.06 norm. | 0.73 norm. | 0.78 norm. |  |  | 
DLRSNMFSIVGSLPR [GlyRβ_Full_Positional_Scan_118] | 0.85 norm. | 0.62 norm. | 0.84 norm. |  |  | 
VLRSNDFSIVGSLPR [GlyRβ_Full_Positional_Scan_006] | 1.05 norm. | 0.8 norm. | 1.18 norm. |  |  | 
DLRSNDKSIVGSLPR [GlyRβ_Full_Positional_Scan_134, GlyR β 414-428 variant F420K] | 0.53 norm. | 0.3 norm. | 0.61 norm. |  |  | 
DLRSNDRSIVGSLPR [GlyRβ_Full_Positional_Scan_132, GlyR β 414-428 variant F420R] | 0.63 norm. | 0.41 norm. | 0.77 norm. |  |  | 
DLRSNIFSIVGSLPR [GlyRβ_Full_Positional_Scan_103] | 0.79 norm. | 0.35 norm. | 0.97 norm. |  |  | 
DCRSNDFSIVGSLPR [GlyRβ_Full_Positional_Scan_037] | 0.95 norm. | 1.22 norm. | 0.9 norm. |  |  | 
DLRSNDFQIVGSLPR [GlyRβ_Full_Positional_Scan_160, GlyR β 414-428 variant S421Q] | 0.66 norm. | 0.47 norm. | 0.9 norm. |  |  | 
DLRRNDFSIVGSLPR [GlyRβ_Full_Positional_Scan_072] | 0.97 norm. | 1.25 norm. | 1.06 norm. |  |  | 
DLRPNDFSIVGSLPR [GlyRβ_Full_Positional_Scan_065] | 0.89 norm. | 0.71 norm. | 0.64 norm. |  |  | 
DLRSNDHSIVGSLPR [GlyRβ_Full_Positional_Scan_133, GlyR β 414-428 variant F420H] | 0.57 norm. | 0.44 norm. | 0.61 norm. |  |  | 
DLRSNDFSIVGSLPK [GlyRβ_Full_Positional_Scan_294] |  |  |  | 0.92 norm. | 0.71 norm. | 1.24 norm.
DLRSNDFSIVNSLPR [GlyRβ_Full_Positional_Scan_219, GlyR β 414-428 variant G424N] |  |  |  | 0.38 norm. | 0.17 norm. | 0.41 norm.
DFRSNDFSIVGSLPR [GlyRβ_Full_Positional_Scan_027] | 0.98 norm. | 0.91 norm. | 0.99 norm. |  |  | 
DLRSNHFSIVGSLPR [GlyRβ_Full_Positional_Scan_113] | 0.86 norm. | 0.48 norm. | 0.85 norm. |  |  | 
DLRSNDFSIVGSLWR [GlyRβ_Full_Positional_Scan_268] |  |  |  | 0.61 norm. | 0.32 norm. | 0.72 norm.
DLRSNDFSIVDSLPR [GlyRβ_Full_Positional_Scan_210, GlyR β 414-428 variant G424D] | 0.22 norm. | 0.15 norm. | 0.16 norm. |  |  | 
DLRSWDFSIVGSLPR [GlyRβ_Full_Positional_Scan_088] | 0.86 norm. | 0.47 norm. | 0.66 norm. |  |  | 

Sequence | gephE Binding Intensity [norm.] (gephE; [1]) | Native geph Binding Intensity [norm.] (native geph; [2]) | Fl-geph Binding Intensity [norm.] (FL-geph; [3]) | gephE Binding Intensity [norm.] (gephE; [4]) | Native geph Binding Intensity [norm.] (native geph; [5]) | Fl-geph Binding Intensity [norm.] (FL-geph; [4])
DLRSNDFSIVCSLPR [GlyRβ_Full_Positional_Scan_217, GlyR β 414-428 variant G424C] |  |  |  | 0.43 norm. | 0.23 norm. | 0.45 norm.
DLNSNDFSIVGSLPR [GlyRβ_Full_Positional_Scan_059] | 0.85 norm. | 1.28 norm. | 1.17 norm. |  |  | 
DLRSNDFSIVGSLPS [GlyRβ_Full_Positional_Scan_295] |  |  |  | 0.82 norm. | 1.3 norm. | 1.3 norm.
DLRSNWFSIVGSLPR [GlyRβ_Full_Positional_Scan_108] | 0.79 norm. | 0.32 norm. | 0.65 norm. |  |  | 
LLRSNDFSIVGSLPR [GlyRβ_Full_Positional_Scan_004] | 1.18 norm. | 0.66 norm. | 1.1 norm. |  |  | 
HLRSNDFSIVGSLPR [GlyRβ_Full_Positional_Scan_013] | 1.1 norm. | 0.83 norm. | 1 norm. |  |  | 
DLRSNDFSIVGSLPI [GlyRβ_Full_Positional_Scan_283] |  |  |  | 0.98 norm. | 1.01 norm. | 1.05 norm.
DLRSNDFSIVGSWPR [GlyRβ_Full_Positional_Scan_248] |  |  |  | 0.7 norm. | 0.52 norm. | 0.93 norm.
FLRSNDFSIVGSLPR [GlyRβ_Full_Positional_Scan_007] | 0.96 norm. | 0.77 norm. | 1.03 norm. |  |  | 
DLRSNDFEIVGSLPR [GlyRβ_Full_Positional_Scan_151, GlyR β 414-428 variant S421E] | 0.47 norm. | 0.2 norm. | 0.79 norm. |  |  | 
DLRSNDFSIVGSTPR [GlyRβ_Full_Positional_Scan_256] |  |  |  | 0.86 norm. | 0.89 norm. | 1.14 norm.
DLRTNDFSIVGSLPR [GlyRβ_Full_Positional_Scan_076] | 0.93 norm. | 1.12 norm. | 1.09 norm. |  |  | 
DLRSNDFSIVWSLPR [GlyRβ_Full_Positional_Scan_208, GlyR β 414-428 variant G424W] | 0.32 norm. | 0.16 norm. | 0.35 norm. |  |  | 
DLRSNDFDIVGSLPR [GlyRβ_Full_Positional_Scan_150, GlyR β 414-428 variant S421D] | 0.53 norm. | 0.29 norm. | 0.9 norm. |  |  | 
DLRSNDSSIVGSLPR [GlyRβ_Full_Positional_Scan_135, GlyR β 414-428 variant F420S] | 0.51 norm. | 0.35 norm. | 0.46 norm. |  |  | 
DLRSNDLSIVGSLPR [GlyRβ_Full_Positional_Scan_124, GlyR β 414-428 variant F420L] | 0.58 norm. | 0.44 norm. | 0.69 norm. |  |  | 
DLRSNDFSITGSLPR [GlyRβ_Full_Positional_Scan_196, GlyR β 414-428 variant V423T] | 0.66 norm. | 0.59 norm. | 0.97 norm. |  |  | 
DLRWNDFSIVGSLPR [GlyRβ_Full_Positional_Scan_068] | 0.92 norm. | 0.95 norm. | 0.81 norm. |  |  | 
